Data on 27 compounds can be found in patent US6670391B2, “Benzopyran derivative and antiallergic agent” (Dainippon Ink and Chemicals, Inc., priority 2001, dated 2003).

The assay has as its system male Hartley guinea pigs actively sensitized with egg-white albumin. Put plainly: Antiallergic Test due to Antigen-Induced Immediate Type Airway Reaction and Delayed Type Airway Reaction. It is filed as in vivo. The following applies: Cavia porcellus, po, 10 mg/kg orally once one hour before induction (prednisolone 10 mg/kg orally twice, 16 hours and 2 hours before). How it is done:
Using an ultrasonic nebulizer (NE-U12, manufactured by OMRON Corporation), male Hartley guinea pigs (aged six weeks) were actively sensitized by consecutive 8-day inhalation of a 1 wt % physiological saline of egg-white albumin for 10 minutes a day. After one week passed since the final sensitization, an asthmatic disease state was induced by inhalation of a 2 wt % physiological saline of egg-white albumin for 5 minutes in the same manner. To inhibit the synthesis of endogenous steroid, metyrapone (10 mg/kg) was intravenously administered at 24 hours and one hour before the induction. To inhibit anaphylactic shock, pyrilamine (10 mg/kg) was intraperitoneally administered 30 minutes before inducing the asthmatic reaction.
After inducing the asthmatic reaction, the airway resistance (specific airway resistance Raw) was measured for 1 minute before inducing the asthmatic reaction, and 1 minute, 2 hours, 4 hours, 5 hours, 6 hours, 7 hours, 8 hours, and 23-24 hours after inducing the asthmatic reaction, using an airway resistance measuring apparatus (Pulmos-I, manufactured by M.I.P.S.). An average value of the airway resistance was determined, and an airway resistance increase ratio with respect to the value of the airway resistance before the induction was calculated by the following Equation 1.
Each of the test substances (10 mg/kg) listed in Table 1 was suspended in an aqueous 0.5% methyl cellulose solution, and the suspension was orally administered once one hour before inducing the asthmatic reaction. A positive control substance (prednisolone) was orally administered twice at a dosage of 10 mg/kg 16 hours and 2 hours before inducing the asthmatic reaction. The test was carried out on 8 animals per group.
According to this test procedure, a two-phase increase in airway resistance was observed immediately after inducing the asthmatic reaction and after 4-8 hours passed since inducing the asthmatic reaction. In the present invention, the former increase in airway resistance is referred to as the immediate type asthmatic reaction, while the latter increase in airway resistance is referred to as the delayed type asthmatic reaction. With respect to the evaluation of the drug, for the immediate type asthmatic reaction, the inhibition percentage with respect to the asthmatic reaction inhibiting medium administration group (referring to the group wherein a test drug is not administered after inducing the asthmatic reaction, hereinafter merely referred to as the “medium administration group”) was determined by Equation 2 using the airway resistance increase ratio after one minute gas passed since the induction as an index.
For the delayed type asthmatic reaction, the inhibition percentage with respect to the medium administration group was determined by the following Equation 3 using the area under the curve (AUC4-8) of the airway resistance increase ratio up to 4-8 hours after inducing the asthmatic reaction as an index. As an example, the relationship between the airway resistance increase ratio up to 4-8 hours after inducing the asthmatic reaction of the delayed type asthmatic reaction and time in the medium administration group, the prednisolone administration group, and the compound (216) administration group is shown in FIG. 1. As used herein, the area under the curve showing the relationship between the airway resistance increase ratio and time is (AUC4-8)
Airway resistance increase ratio (%)=(airway resistance after inducing the asthmatic airway resistance−airway resistance before inducing the asthmatic reaction)/(airway resistance before inducing the asthmatic reaction)×100
Inhibition (%)=(1−airway resistance increase ratio after one minute has passed since inducing the asthmatic reaction of the test substance administration group/airway resistance increase ratio after one minute has passed since inducing the asthmatic reaction of the medium administration group)×100 […]

Setting [1] is: 1 min, airway resistance increase ratio one minute after induction vs medium administration group, read-out: Inhibition (%) against immediate type allergy.
Setting [2] is: AUC4-8 of airway resistance increase ratio 4-8 hours after induction vs medium administration group, read-out: Inhibition (%) against delayed type allergy.

Where two headings read alike, the source gives them in different places.

As to `COc1ccc2c(O)c(O)c(=O)oc2c1` [Comparative Compound (1), 3,4-dihydroxy-7-methoxy-2H-1-benzopyran-2-one, reference compound], the inhibition in vivo at 10 mg/kg is, setting by setting: under setting [1], 5.7%; under setting [2], 21.9%.
For `CCCCCCCCCCOc1ccc2c(O)c(OC)c(=O)oc2c1` [Comparative Compound (2), 3-methoxy-4-hydroxy-7-decyloxy-2H-1-benzopyran-2-one, reference compound] the same measures were 6.5% and 20.2%.
Consider `CCCCCCCCCCOc1cccc2c(OCCCC)c(O)c(=O)oc12` [Comparative Compound (3), 3-hydroxy-4-butoxy-8-decyloxy-2H-1-benzopyran-2-one, reference compound], for which the inhibition in vivo at 10 mg/kg under setting [1] is 5.2% and the inhibition in vivo at 10 mg/kg under setting [2] amounted to 24.3%.
As to `COc1ccc2c(O)c([C@@H]3O[C@H](CO)[C@@H](O)[C@H](O)[C@H]3O)c(=O)oc2c1` [Comparative Compound (4), 7-methoxy-4-hydroxy-3-(β-D-glucopyranosyl)-2H-1-benzopyran-2-one, reference compound], the inhibition in vivo at 10 mg/kg stood at 4.7% under setting [1] and 20.5% under setting [2].
On to `CCCCOc1ccc2c([C@@H]3O[C@H](CO)[C@@H](O)[C@H](O)[C@H]3O)c(O)c(=O)oc2c1` [Comparative Compound (5), 7-butoxy-3-hydroxy-4-(β-D-glucopyranosyl)-2H-1-benzopyran-2-one, reference compound], for which the inhibition in vivo at 10 mg/kg under setting [1] was found to be 6.8% and the inhibition in vivo at 10 mg/kg under setting [2] is 22.4%.
As to `CCCCCCOc1c(O)c(=O)oc2cc([C@@H]3O[C@H](CO)[C@@H](O)[C@H](O)[C@H]3O)ccc12` [Comparative Compound (6), 3-hydroxy-4-hexyloxy-7-(β-D-glucopyranosyl)-2H-1-benzopyran-2-one, reference compound], the inhibition in vivo at 10 mg/kg under setting [1] came to 5.9% and the inhibition in vivo at 10 mg/kg under setting [2] is 24.1%.
For `CCCCCCOc1c(O)c2c(OCCO)cccc2oc1=O` [Compound (8), 3-hexyloxy-4-hydroxy-5-(2-hydroxyethoxy)-2H-1-benzopyran-2-one], the inhibition in vivo at 10 mg/kg is 14.1% under setting [1] and 58.2% under setting [2].
For `CCCCCCCCOc1c(O)c2c(OCCO)cccc2oc1=O` [Compound (14), 3-octyloxy-4-hydroxy-5-(2-hydroxyethoxy)-2H-1-benzopyran-2-one] the same measures were 32.4% and 65.5%.
For `CCCCCCOc1c(O)c2c(OCCCO)cccc2oc1=O` [Compound (29), 3-hexyloxy-4-hydroxy-5-(3-hydroxypropyloxy)-2H-1-benzopyran-2-one] the same measures were 15.8% and 60.9%.
Regarding `CCCCCCOc1c(O)c2c(OCCC(O)CO)cccc2oc1=O` (stereo not drawn) [Compound (53), 3-hexyloxy-4-hydroxy-5-(3,4-dihydroxybutoxy)-2H-1-benzopyran-2-one], the inhibition in vivo at 10 mg/kg worked out at 19.3% under setting [1] and 59.8% under setting [2].
For `CCCCCCOc1c(O)c2c(OCC(=O)O)cccc2oc1=O` [Compound (65), 3-hexyloxy-4-hydroxy-5-hydroxycarbonylmethoxy-2H-1-benzopyran-2-one] the same measures were 21.5% and 60.2%.
In the case of `CC(C)=CCC/C(C)=C/COc1c(O)c2c(OCC(=O)O)cccc2oc1=O` [Compound (81), 3-geranyloxy-4-hydroxy-5-hydroxycarbonylmethoxy-2H-1-benzopyran-2-one], the inhibition in vivo at 10 mg/kg runs as follows: under setting [1], 15.4%; under setting [2], 54.1%.
The like results for `CCCCCCOc1c(O)c2c(OCCCCC(=O)O)cccc2oc1=O` [Compound (99), 3-hexyloxy-4-hydroxy-5-(4-hydroxycarbonylbutoxy)-2H-1-benzopyran-2-one] were, in that order, 14.6% and 61.9%.
For `CCCCCCOc1c(O)c2cc(OCCO)ccc2oc1=O` [Compound (109), 3-hexyloxy-4-hydroxy-6-(2-hydroxyethoxy)-2H-1-benzopyran-2-one], the inhibition in vivo at 10 mg/kg reads like this: under setting [1], 14%; under setting [2], 66.8%.
For `CCCCCCCCOc1c(O)c2cc(OCCO)ccc2oc1=O` [Compound (115), 3-octyloxy-4-hydroxy-6-(2-hydroxyethoxy)-2H-1-benzopyran-2-one], the inhibition in vivo at 10 mg/kg reads like this: under setting [1], 31.8%; under setting [2], 61.7%.
For `CCOc1c(O)c2cc(OCCCCO)ccc2oc1=O` [Compound (137), 3-ethoxy-4-hydroxy-6-(4-hydroxybutoxy)-2H-1-benzopyran-2-one] the same measures were 8.3% and 58.9%.
For `CCCCCCOc1c(O)c2cc(OCC(O)CO)ccc2oc1=O` (stereo not drawn) [Compound (147), 3-hexyloxy-4-hydroxy-6-(2,3-dihydroxypropyloxy)-2H-1-benzopyran-2-one] the same measures were 19.1% and 59.5%.
Regarding `CCCCCCOc1c(O)c2cc(OCC(=O)O)ccc2oc1=O` [Compound (166), 3-hexyloxy-4-hydroxy-6-hydroxycarbonylmethoxy-2H-1-benzopyran-2-one], the inhibition in vivo at 10 mg/kg was 23.5% under setting [1] and 64.1% under setting [2].
For the compound `CCCCCCC=COc1c(O)c2cc(OCCCCC(=O)O)ccc2oc1=O` [Compound (202), 3-(1-octenyloxy)-4-hydroxy-6-(4-hydroxycarbonylbutoxy)-2H-1-benzopyran-2-one], the inhibition in vivo at 10 mg/kg reads like this: under setting [1], 19.9%; under setting [2], 57.8%.
For `CCCCOc1c(O)c2ccc(OCCO)cc2oc1=O` [Compound (207), 3-butoxy-4-hydroxy-7-(2-hydroxyethoxy)-2H-1-benzopyran-2-one] the same measures were 8.5% and 71.7%.
The like results for `CCCCCCOc1c(O)c2ccc(OCCO)cc2oc1=O` [Compound (210), 3-hexyloxy-4-hydroxy-7-(2-hydroxyethoxy)-2H-1-benzopyran-2-one] were, in that order, 14.2% and 71.4%.
The like results for `CCCCCCCCOc1c(O)c2ccc(OCCO)cc2oc1=O` [Compound (216), 3-octyloxy-4-hydroxy-7-(2-hydroxyethoxy)-2H-1-benzopyran-2-one] were, in that order, 38.8% and 72.5%.
On to `CC(C)=CCC/C(C)=C/COc1c(O)c2ccc(OCCO)cc2oc1=O` [Compound (226), 3-geranyloxy-4-hydroxy-7-(2-hydroxyethoxy)-2H-1-benzopyran-2-one], for which the inhibition in vivo at 10 mg/kg is 22.8% under setting [1] and 61.5% under setting [2].
With `CCCCCCCCOc1c(O)c2ccc(OCC(O)CO)cc2oc1=O` (stereo not drawn) [Compound (249), 3-octyloxy-4-hydroxy-7-(2,3-dihydroxypropyloxy)-2H-1-benzopyran-2-one], the inhibition in vivo at 10 mg/kg runs as follows: under setting [1], 28.8%; under setting [2], 63.4%.
As to `CCCCCCOc1c(O)c2ccc(OCC(=O)O)cc2oc1=O` [Compound (267), 3-hexyloxy-4-hydroxy-7-hydroxycarbonylmethoxy-2H-1-benzopyran-2-one], the inhibition in vivo at 10 mg/kg was determined as 14% under setting [1] and 62.2% under setting [2].
For `CCCCCCCCOc1c(O)c2ccc(OCC(=O)O)cc2oc1=O` [Compound (273), 3-octyloxy-4-hydroxy-7-hydroxycarbonylmethoxy-2H-1-benzopyran-2-one] the same measures were 32.9% and 64.5%.
The like results for `CCCCCCOc1c(O)c2ccc(OCCC(=O)O)cc2oc1=O` [Compound (288), 3-hexyloxy-4-hydroxy-7-(2-hydroxycarbonylethoxy)-2H-1-benzopyran-2-one] were, in that order, 13.4% and 59.1%.
